From patent US20220024906A1, “COMPOUNDS AND COMPOSITIONS FOR TREATING CONDITIONS ASSOCIATED WITH STING ACTIVITY” (IFM Due, Inc., priority 2020, published 2022) come the findings set out here.

SMILES strings stand for the structures.

What is called EC50 is the concentration needed to bring the measured effect to its halfway point. A low value points to greater potency.

This experiment deals with T1, hSTING (Homo sapiens, UniProt Q86WV6, G230A/H232R/R293Q/R71H).
T1 construct: host or cells: THP1-Dual KO-IFNAR2 cells
T1 sequence (Q86WV6 whole entry R71H/G230A/H232R/R293Q): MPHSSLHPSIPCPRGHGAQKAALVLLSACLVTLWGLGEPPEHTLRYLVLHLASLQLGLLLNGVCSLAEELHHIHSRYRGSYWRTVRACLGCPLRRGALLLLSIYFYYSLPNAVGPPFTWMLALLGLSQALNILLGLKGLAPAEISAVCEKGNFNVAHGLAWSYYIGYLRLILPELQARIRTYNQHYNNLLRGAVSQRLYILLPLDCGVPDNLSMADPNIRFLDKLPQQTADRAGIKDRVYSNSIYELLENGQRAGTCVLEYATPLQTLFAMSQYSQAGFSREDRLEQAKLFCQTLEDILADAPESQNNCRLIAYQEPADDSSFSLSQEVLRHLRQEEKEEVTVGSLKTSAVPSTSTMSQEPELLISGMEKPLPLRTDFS
Nature of the experiment: STING reporter assay (luciferase) in THP1-Dual KO-IFNAR2 cells stimulated with 2′3′cGAMP. Format: cell-based. The note with it: 15 μM 2′3′cGAMP transfected, 24 h, luciferase reporter activity. As to the method: STING pathway activation by the compounds described herein was measured using THP1-Dual™ cells (KO-IFNAR2).
THP1-Dual™ KO-IFNAR2 Cells (obtained from invivogen) were maintained in RPMI, 10% FCS, 5 ml P/S, 2 mM L-glut, 10 mM Hepes, and 1 mM sodium pyruvate. Compounds were spotted in empty 384 well tissue culture plates (Greiner 781182) by Echo for a final concentration of 0.0017-100 μM. Cells were plated into the TC plates at 40 μL per well, 2×10E6 cells/mL. For activation with STING ligand, 2′3′cGAMP (MW 718.38, obtained from Invivogen), was prepared in Optimem media.
The following solutions were prepared for each 1×384 plate: • Solution A: 2 mL Optimem with one of the following stimuli: • 60 μL of 10 mM 2′3′cGAMP→150 μM stock • Solution B: 2 mL Optimem with 60 μL Lipofectamine 2000→Incubate 5 min at RT
2 mL of solution A and 2 ml Solution B was mixed and incubated for 20 min at room temperature (RT). 20 μL of transfection solution (A+B) was added on top of the plated cells, with a final 2′3′cGAMP concentration of 15 μM. The plates were then centrifuged immediately at 340 g for 1 minute, after which they were incubated at 37° C., 5% CO2, >98% humidity for 24 h. Luciferase reporter activity was then measured. EC50 values were calculated by using standard methods known in the art.
Luciferase reporter assay: 10 μL of supernatant from the assay was transferred to white 384-plate with flat bottom and squared wells. One pouch of QUANTI-Luc™ Plus was dissolved in 25 mL of water. 100 μL of QLC Stabilizer per 25 mL of QUANTI-Luc™ Plus solution was added. 50 μL of QUANTI-Luc™ Plus/QLC solution per well was then added. Luminescence was measured on a Platereader (e.g., Spectramax I3X (Molecular Devices GF3637001)).
Luciferase reporter activity was then measured. EC50 values were calculated by using standard methods known in the art.
(A reporter such as luciferase makes a cellular process visible.)
For `O=C(Cc1cnc(N2CCC(F)(F)CC2)c(Cl)c1)Nc1c[nH]c2ccc(Br)cc12` [Compound 101, N-(5-bromo-1H-indol-3-yl)-2-(5-chloro-6-(4,4-difluoropiperidin-1-yl)pyridin-3-yl)acetamide], the EC50 lay in the range of 0.2 to 1 µM.

`CC(C)(Oc1ccccc1)C(=O)Nc1c[nH]c2cc(F)c(F)cc12` [Compound 102, N-(5,6-difluoro-1H-indol-3-yl)-2-methyl-2-phenoxypropanamide] showed a concentration giving a half-maximal response (EC50) of 5 to 100 µM.

The molecule `CCOc1ccc(CC(=O)Nc2c[nH]c3cc(F)c(F)cc23)cc1C(F)(F)F` [Compound 103, N-(5,6-difluoro-1H-indol-3-yl)-2-(4-ethoxy-3-(trifluoromethyl)phenyl)acetamide] returned an EC50 of 1 to 5 µM.

Turning to `O=C(CCc1ccc(OC(F)(F)F)cc1)Nc1c[nH]c2cc(F)c(F)cc12` [Compound 104, N-(5,6-difluoro-1H-indol-3-yl)-3-(4-(trifluoromethoxy)phenyl)propanamide], the EC50 lay within 0.2 to 1 µM.

The molecule `Cc1ccc(OC(C)(C)C(=O)Nc2c[nH]c3cc(F)c(F)cc23)nc1` [Compound 105, N-(5,6-difluoro-1H-indol-3-yl)-2-methyl-2-((5-methylpyridin-2-yl)oxy)propanamide] showed an EC50 of 5 to 100 µM.

`CCOc1cccc(CCC(=O)Nc2c[nH]c3cc(F)c(F)cc23)c1` [Compound 106, N-(5,6-difluoro-1H-indol-3-yl)-3-(3-ethoxyphenyl)propanamide] returned an EC50 of 0.2 to 1 µM.

`N#Cc1cc(CC(=O)Nc2c[nH]c3cc(F)c(F)cc23)ccn1` [Compound 107, 2-(2-cyanopyridin-4-yl)-N-(5,6-difluoro-1H-indol-3-yl)acetamide] returned an EC50 of 1 to 5 µM.

Molecule `COc1cccc(CCC(=O)Nc2c[nH]c3cc(F)c(F)cc23)n1` [Compound 108, N-(5,6-difluoro-1H-indol-3-yl)-3-(6-methoxypyridin-2-yl)propanamide] had a half-maximal effective concentration (EC50) of 5 to 100 µM.

As for `C/C(=C\c1ccccn1)C(=O)Nc1c[nH]c2cc(F)c(F)cc12` [Compound 109, (E)-N-(5,6-difluoro-1H-indol-3-yl)-2-methyl-3-(pyridin-2-yl)acrylamide], the half-maximal effective concentration (EC50) was 1 to 5 µM.

`COc1ccc(/C=C(\C)C(=O)Nc2c[nH]c3cc(F)c(F)cc23)cc1` [Compound 110, (E)-N-(5,6-difluoro-1H-indol-3-yl)-3-(4-methoxyphenyl)-2-methylacrylamide] gave a concentration giving a half-maximal response (EC50) of 0.2 to 1 µM.

`O=C(Nc1c[nH]c2cc(F)c(F)cc12)C1CCN(S(=O)(=O)c2ccc(F)cc2)C1` (stereo not drawn) [Compound 111, N-(5,6-difluoro-1H-indol-3-yl)-1-((4-fluorophenyl)sulfonyl)pyrrolidine-3-carboxamide] yielded a concentration giving a half-maximal response (EC50) of 1 to 5 µM.

Regarding `COc1cccc(N2CC(C(=O)Nc3c[nH]c4cc(F)c(F)cc34)CC2=O)c1` (stereo not drawn) [Compound 112, N-(5,6-difluoro-1H-indol-3-yl)-1-(3-methoxyphenyl)-5-oxopyrrolidine-3-carboxamide], the EC50 fell in the range of 5 to 100 µM.

`C[C@H](NC1CCCCC1)C(=O)Nc1c[nH]c2cc(F)c(F)cc12` [Compound 113, (S)-2-(cyclohexylamino)-N-(5,6-difluoro-1H-indol-3-yl)propanamide] registered an EC50 of 5 to 100 µM.

In turn, `O=C(Nc1c[nH]c2cc(F)c(F)cc12)C1CC(Oc2ccccc2)C1` (stereo not drawn) [Compound 114, N-(5,6-difluoro-1H-indol-3-yl)-3-phenoxycyclobutane-1-carboxamide] displayed an EC50 of 1 to 5 µM.

For the molecule `O=C(Nc1c[nH]c2cc(F)c(F)cc12)[C@H]1CCN(C(=O)OCc2ccccc2)C1` [Compound 115, benzyl (S)-3-((5,6-difluoro-1H-indol-3-yl)carbamoyl)pyrrolidine-1-carboxylate], the half-maximal effective concentration (EC50) was in the range of 5 to 100 µM.

Molecule `COc1ccc(CCC(=O)Nc2c[nH]c3cc(F)c(F)cc23)cn1` [Compound 116, N-(5,6-difluoro-1H-indol-3-yl)-3-(6-methoxypyridin-3-yl)propanamide] came in with a concentration giving a half-maximal response (EC50) of 5 to 100 µM.

In the case of `O=C(CCc1ccc(C(F)(F)F)nc1)Nc1c[nH]c2cc(F)c(F)cc12` [Compound 117, N-(5,6-difluoro-1H-indol-3-yl)-3-(6-(trifluoromethyl)pyridin-3-yl)propanamide], the EC50 lay within 1 to 5 µM.

The molecule `O=C(Nc1c[nH]c2cc(F)c(F)cc12)C1CN(Cc2ccccc2)CCO1` (stereo not drawn) [Compound 118, 4-benzyl-N-(5,6-difluoro-1H-indol-3-yl)morpholine-2-carboxamide] came in with an EC50 of 1 to 5 µM.

The molecule `O=C(CCc1cncc(C(F)(F)F)c1)Nc1c[nH]c2cc(F)c(F)cc12` [Compound 119, N-(5,6-difluoro-1H-indol-3-yl)-3-(5-(trifluoromethyl)pyridin-3-yl)propanamide] showed a half-maximal effective concentration (EC50) of 1 to 5 µM.

In the case of `Cc1ccc(OCCC(=O)Nc2c[nH]c3cc(F)c(F)cc23)cc1` [Compound 120, N-(5,6-difluoro-1H-indol-3-yl)-3-(p-tolyloxy)propanamide], the half-maximal effective concentration (EC50) fell in the range of 0.2 to 1 µM.

`Cc1cc(CC(=O)Nc2c[nH]c3cc(F)c(F)cc23)cnc1N1CCC(F)(F)CC1` [Compound 126, N-(5,6-difluoro-1H-indol-3-yl)-2-(6-(4,4-difluoropiperidin-1-yl)-5-methylpyridin-3-yl)acetamide] returned an EC50 of 1 to 5 µM.

In turn, `O=C(Cc1cccc(OC(F)F)c1)Nc1c[nH]c2cc(F)c(F)cc12` [Compound 127, N-(5,6-difluoro-1H-indol-3-yl)-2-(3-(difluoromethoxy)phenyl)acetamide] displayed an EC50 of 5 to 100 µM.

`CCOc1cccc(/C=C/C(=O)Nc2c[nH]c3cc(F)c(F)cc23)c1` [Compound 128, (E)-N-(5,6-difluoro-1H-indol-3-yl)-3-(3-ethoxyphenyl)acrylamide]: the concentration giving a half-maximal response (EC50) lay in the range of 0.2 to 1 µM.

Molecule `O=C(Cc1ccc(OC(F)(F)F)cc1)Nc1c[nH]c2cc(F)c(F)cc12` [Compound 129, N-(5,6-difluoro-1H-indol-3-yl)-2-(4-(trifluoromethoxy)phenyl)acetamide] gave an EC50 of 1 to 5 µM.

As to `CC(Oc1ccc(OC(F)(F)F)cc1)C(=O)Nc1c[nH]c2cc(F)c(F)cc12` (stereo not drawn) [Compound 130, N-(5,6-difluoro-1H-indol-3-yl)-2-(4-(trifluoromethoxy)phenoxy)propanamide], the EC50 lay within 1 to 5 µM.

As for `CC(Oc1ccc(C(F)(F)F)cc1)C(=O)Nc1c[nH]c2cc(F)c(F)cc12` (stereo not drawn) [Compound 131, N-(5,6-difluoro-1H-indol-3-yl)-2-(4-(trifluoromethyl)phenoxy)propanamide], the EC50 lay within 1 to 5 µM.

As to `COc1ccc(CC(=O)Nc2c[nH]c3cc(F)c(F)cc23)cc1C(F)(F)F` [Compound 132, N-(5,6-difluoro-1H-indol-3-yl)-2-(4-methoxy-3-(trifluoromethyl)phenyl)acetamide], the EC50 lay within 5 to 100 µM.

In turn, `COc1ccc(CC(C)(C)C(=O)Nc2c[nH]c3cc(F)c(F)cc23)cc1` [Compound 133, N-(5,6-difluoro-1H-indol-3-yl)-3-(4-methoxyphenyl)-2,2-dimethylpropanamide] gave a half-maximal effective concentration (EC50) of 5 to 100 µM.

In turn, `CC(C)(Oc1ccc(F)cc1)C(=O)Nc1c[nH]c2cc(F)c(F)cc12` [Compound 134, N-(5,6-difluoro-1H-indol-3-yl)-2-(4-fluorophenoxy)-2-methylpropanamide] gave an EC50 of 5 to 100 µM.

Molecule `N#Cc1cccc(/C=C/C(=O)Nc2c[nH]c3cc(F)c(F)cc23)c1` [Compound 135, (E)-3-(3-cyanophenyl)-N-(5,6-difluoro-1H-indol-3-yl)acrylamide] showed an EC50 of 0.2 to 1 µM.
